Columns and labels:
[1] = Aqueous solubility of the compound in phosphate buffered saline at pH 7.1 by shake-flask method; format: physicochemical
[2] = Aqueous solubility of the compound in citrate buffer at pH 5 by shake-flask method; format: physicochemical
Cannabinoid receptor 1 [3] = molecular target: T1, Cannabinoid receptor 1 (Homo sapiens, UniProt P21554)
Description: Agonist activity at human cannabinoid CB1 receptor expressed in CHO cells co-expressing AP-1 response element after 5 hrs by luciferase reporter gene assay

Mus musculus [4] = experiment: Antinociceptive activity in iv dosed ICR mouse assessed as increase of tail flick latency after 20 to 60 mins by tail flick latency test; format: functional, organism-based
[5] = Aqueous solubility of the compound in phosphate buffered saline at pH 7 by shake-flask method; format: physicochemical
Cannabinoid receptor 2 = Cannabinoid receptor 2 (Homo sapiens, UniProt P34972); experiment: Displacement of [3H]-CP55940 from human cannabinoid CB2 receptor expressed in Sf9 insect cells after 70 mins by scintillation counting
Sequence of Cannabinoid receptor 2 (P34972 whole entry): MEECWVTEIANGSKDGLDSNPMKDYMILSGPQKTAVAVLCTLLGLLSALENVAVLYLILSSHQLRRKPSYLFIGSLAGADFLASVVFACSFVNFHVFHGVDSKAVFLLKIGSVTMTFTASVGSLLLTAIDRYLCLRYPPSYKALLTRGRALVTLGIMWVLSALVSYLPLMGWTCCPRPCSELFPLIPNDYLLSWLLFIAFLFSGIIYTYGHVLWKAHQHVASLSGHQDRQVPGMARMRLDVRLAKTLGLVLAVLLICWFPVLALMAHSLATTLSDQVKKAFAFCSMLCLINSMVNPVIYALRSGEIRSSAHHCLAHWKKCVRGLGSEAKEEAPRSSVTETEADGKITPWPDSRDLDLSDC

Homo sapiens [6] = species: Homo sapiens; experiment: Selectivity ratio of Ki for human ERG to Ki for human cannabinoid CB1 receptor
Homo sapiens [7] = species: Homo sapiens; experiment: Selectivity ratio of Ki for human ERG to Ki for human cannabinoid CB2 receptor
[8] = Intrinsic clearance in human liver microsomes; format: ADME; conditions: read-out: CLH
[9] = Intrinsic clearance in mouse liver microsomes; format: ADME; conditions: read-out: CLH
[10] = Cmax in ICR mouse plasma at 3 umol/kg, iv; format: ADME, cell-free; set-up: dose 3 umol/kg, route intravenous
[11] = AUC in ICR mouse plasma at 3 umol/kg, iv; format: ADME, cell-free
[12] = Clearance in ICR mouse plasma at 3 umol/kg, iv; format: ADME, cell-free
[13] = Elimination half life in ICR mouse plasma at 3 umol/kg, iv; format: ADME, cell-free; conditions: read-out: beta t1/2 (converted)
[14] = Volume of distribution at steady state in ICR mouse plasma at 3 umol/kg, iv; format: ADME, cell-free; conditions: read-out: Vdss
[15] = Cmax in ICR mouse brain at 3 umol/kg, iv; format: ADME, tissue-based; set-up: dose 3 umol/kg, route intravenous
[16] = Tmax in ICR mouse brain at 3 umol/kg, iv; format: ADME, tissue-based
Brain = experiment: AUC (0 to 1 hr) in ICR mouse brain at 3 umol/kg, iv; format: ADME, tissue-based; set-up: time < 1 hr, dose 3 umol/kg, route intravenous; conditions: in vivo
[17] = Ratio of Cmax in brain to plasma in ICR mouse at 3 umol/kg, iv; format: ADME, cell-free; conditions: brain and plasma, read-out: BPR
[18] = Tmax in ICR mouse plasma at 3 umol/kg, iv; format: ADME, cell-free
Mus musculus [19] = experiment: Antinociceptive activity in ICR mouse assessed as increase of tail flick latency at 1 umol/kg, iv after 20 to 60 mins by tail flick latency test relative to control; format: functional
Mus musculus [20] = experiment: Antinociceptive activity in ICR mouse assessed as increase of tail flick latency at 0.1 umol/kg, iv after 20 to 60 mins by tail flick latency test relative to control; format: functional
Mus musculus [21] = experiment: Antinociceptive activity in ICR mouse assessed as increase of tail flick latency at 0.3 umol/kg, iv after 20 to 60 mins by tail flick latency test relative to control; format: functional
Mus musculus [22] = experiment: Antinociceptive activity in iv dosed ICR mouse assessed as time taken for tail flick latency to return to within mean plus two standard deviations of baseline value following twice ED50 dose by tail flick latency test; format: functional
Mus musculus [23] = experiment: Antinociceptive activity in iv dosed ICR mouse assessed as inhibition of time spent licking formalin injected paw after 5 to 30 mins; format: functional, organism-based
Mus musculus [24] = experiment: Antinociceptive activity in ICR mouse assessed as inhibition of time spent licking formalin injected paw at 0.01 umol/kg, iv after 5 to 10 mins relative to control; format: functional
Mus musculus [25] = experiment: Antinociceptive activity in ICR mouse assessed as inhibition of time spent licking formalin injected paw at 0.03 umol/kg, iv after 5 to 10 mins relative to control; format: functional
Mus musculus [26] = experiment: Antinociceptive activity in ICR mouse assessed as inhibition of time spent licking formalin injected paw at 0.1 umol/kg, iv after 5 to 10 mins relative to control; format: functional
Mus musculus [27] = experiment: Antinociceptive activity in ICR mouse assessed as inhibition of time spent licking formalin injected paw at 0.3 umol/kg, iv after 5 to 10 mins relative to control; format: functional
Mus musculus [28] = experiment: Antinociceptive activity in ICR mouse assessed as inhibition of time spent licking formalin injected paw at 0.01 umol/kg, iv after 20 to 30 mins relative to control; format: functional
Mus musculus [29] = experiment: Antinociceptive activity in ICR mouse assessed as inhibition of time spent licking formalin injected paw at 0.03 umol/kg, iv after 20 to 30 mins relative to control; format: functional
Mus musculus [30] = experiment: Antinociceptive activity in ICR mouse assessed as inhibition of time spent licking formalin injected paw at 0.1 umol/kg, iv after 20 to 30 mins relative to control; format: functional
Mus musculus [31] = experiment: Antinociceptive activity in ICR mouse assessed as inhibition of time spent licking formalin injected paw at 0.3 umol/kg, iv after 20 to 30 mins relative to control; format: functional
Cannabinoid receptor 1 [32] = molecular target: T1, Cannabinoid receptor 1; experiment: biochemical
[33] = Aqueous solubility of the compound in phosphate buffered saline at pH 6.7 by shake-flask method; format: physicochemical
Mus musculus [34] = experiment: Antinociceptive activity in ICR mouse assessed as increase of tail flick latency at 0.2 umol/kg, iv after 20 to 60 mins by tail flick latency test relative to control; format: functional
[35] = Aqueous solubility of the compound in phosphate buffered saline at pH 6.9 by shake-flask method; format: physicochemical
[36] = Aqueous solubility of the compound in citrate buffer at pH 4.9 by shake-flask method; format: physicochemical
Mus musculus [37] = experiment: Antinociceptive activity in ICR mouse assessed as increase of tail flick latency at 0.4 umol/kg, iv after 20 to 60 mins by tail flick latency test relative to control; format: functional

T1 sequence (P21554 whole entry): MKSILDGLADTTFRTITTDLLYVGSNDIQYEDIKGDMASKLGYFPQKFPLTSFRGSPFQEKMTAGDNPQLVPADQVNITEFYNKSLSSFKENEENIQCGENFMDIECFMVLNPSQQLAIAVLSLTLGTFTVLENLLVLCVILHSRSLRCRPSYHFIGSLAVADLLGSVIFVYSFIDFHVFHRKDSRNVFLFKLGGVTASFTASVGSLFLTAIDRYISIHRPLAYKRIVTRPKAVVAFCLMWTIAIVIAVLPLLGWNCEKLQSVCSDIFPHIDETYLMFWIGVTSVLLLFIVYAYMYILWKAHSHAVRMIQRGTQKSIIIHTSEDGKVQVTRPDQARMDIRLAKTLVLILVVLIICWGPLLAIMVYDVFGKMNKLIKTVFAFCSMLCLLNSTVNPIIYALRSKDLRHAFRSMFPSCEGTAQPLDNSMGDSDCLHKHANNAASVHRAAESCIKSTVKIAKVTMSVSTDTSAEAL

SMILES: CCN1CCN(C(=O)c2cn(CC3CCCCC3)c3c(OC)cccc23)C[C@@H]1C.Cl
- solubility thermodynamic [1]: 37 µg/mL
- solubility thermodynamic [2]: > 4000 µg/mL
- EC50 (Cannabinoid receptor 1 [3]): 39.8 nM

SMILES: COc1cccc2c(C(=O)N3C[C@@H](C)N(C)[C@@H](C)C3)cn(CC3CCCCC3)c12.Cl
- Activity (Mus musculus [4]): Dose-dependent effect
- solubility thermodynamic [5]: 12 µg/mL
- solubility thermodynamic [2]: > 4000 µg/mL
- Ki (Cannabinoid receptor 2): 0.794 nM
- Ratio Ki (Homo sapiens [6]): > 100
- Ratio Ki (Homo sapiens [7]): > 100
- microsomal CLint [8]: > 270 µL/min/mg
- microsomal CLint [9]: > 270 µL/min/mg
- Cmax [10]: 593 ng/mL
- AUC [11]: 253 ng·h/mL
- clearance [12]: 77.4 mL/min/kg
- half-life [13]: 19.2 min
- Vd [14]: 2 L/kg
- Cmax [15]: 1620 ng/g
- Tmax [16]: 3 min
- AUC (Brain): 616 ng·h/g
- Kp [17]: 2.7
- Tmax [18]: 3 min
- MPE (Mus musculus [19]): 100%
- MPE (Mus musculus [20]): 14.5%
- MPE (Mus musculus [21]): 72.3%
- Time (Mus musculus [22]): 50 min
- inhibition (Mus musculus [23]): Dose-dependent effect
- inhibition in vivo at 0.01 µmol/kg (Mus musculus [24]): 16.4%
- inhibition in vivo at 0.03 µmol/kg (Mus musculus [25]): 49.5%
- inhibition in vivo at 0.1 µmol/kg (Mus musculus [26]): 84%
- inhibition in vivo at 0.3 µmol/kg (Mus musculus [27]): 97.8%
- inhibition in vivo at 0.01 µmol/kg (Mus musculus [28]): 7.8%
- inhibition in vivo at 0.03 µmol/kg (Mus musculus [29]): 86.9%
- inhibition in vivo at 0.1 µmol/kg (Mus musculus [30]): 93.3%
- inhibition in vivo at 0.3 µmol/kg (Mus musculus [31]): 99.8%
- Ki (Cannabinoid receptor 1 [32]): 1.26 nM

SMILES: CCN1CCN(C(=O)c2cn(CC3CCCCC3)c3c(OC)cccc23)CC1.O=C(O)/C=C\C(=O)O
- solubility thermodynamic [33]: 216 µg/mL
- solubility thermodynamic [2]: 3400 µg/mL

SMILES: CCN1CCN(C(=O)c2cn(CC3CCCCC3)c3cc(OC)ccc23)CC1
- EC50 (Cannabinoid receptor 1 [3]): 158 nM

SMILES: CCN1CCN(C(=O)c2cn(CC3CCCCC3)c3ccc(Cl)cc23)CC1
- EC50 (Cannabinoid receptor 1 [3]): 1260 nM

SMILES: Cc1cccc2c1c(C(=O)N1CCN(C)CC1)cn2CC1CCCCC1
- EC50 (Cannabinoid receptor 1 [3]): > 3160 nM

SMILES: CCN1CCN(C(=O)c2cn(CC3CCCCCC3)c3c(OC)cccc23)CC1
- EC50 (Cannabinoid receptor 1 [3]): 794 nM

SMILES: COc1cccc2c(C(=O)N3CCN(C)[C@@H](C)C3)cn(CC3CCCCC3)c12.Cl
- MPE (Mus musculus [34]): 18.3%
- Activity (Mus musculus [4]): Dose-dependent effect
- solubility thermodynamic [35]: 129 µg/mL
- solubility thermodynamic [36]: 2810 µg/mL
- Ki (Cannabinoid receptor 2): 1.58 nM
- Ratio Ki (Homo sapiens [6]): > 100
- Ratio Ki (Homo sapiens [7]): > 100
- microsomal CLint [8]: > 270 µL/min/mg
- microsomal CLint [9]: > 270 µL/min/mg
- Cmax [10]: 620 ng/mL
- AUC [11]: 248 ng·h/mL
- clearance [12]: 77.3 mL/min/kg
- half-life [13]: 24.6 min
- Vd [14]: 2.1 L/kg
- Cmax [15]: 2460 ng/g
- Tmax [16]: 10.2 min
- AUC (Brain): 804 ng·h/g
- Kp [17]: 4
- Tmax [18]: 3 min
- MPE (Mus musculus [37]): 50.1%
- MPE (Mus musculus [19]): 100%
- Time (Mus musculus [22]): 90 min
- inhibition (Mus musculus [23]): Dose-dependent effect
- inhibition in vivo at 0.01 µmol/kg (Mus musculus [24]): 25.7%
- inhibition in vivo at 0.03 µmol/kg (Mus musculus [25]): 66%
- inhibition in vivo at 0.1 µmol/kg (Mus musculus [26]): 99%
- inhibition in vivo at 0.3 µmol/kg (Mus musculus [27]): 100%
- inhibition in vivo at 0.01 µmol/kg (Mus musculus [28]): 49.2%
- inhibition in vivo at 0.03 µmol/kg (Mus musculus [29]): 79.7%
- inhibition in vivo at 0.1 µmol/kg (Mus musculus [30]): 93.4%
- inhibition in vivo at 0.3 µmol/kg (Mus musculus [31]): 100%
- Ki (Cannabinoid receptor 1 [32]): 1.26 nM

SMILES: COc1cccc2c(C(=O)N3CCN(C)C(C)(C)C3)cn(CC3CCCCC3)c12.Cl
- solubility thermodynamic [5]: 129 µg/mL
- solubility thermodynamic [2]: 2160 µg/mL
- EC50 (Cannabinoid receptor 1 [3]): 158 nM

SMILES: CCN1CCN(C(=O)c2cn(CC3CCCCC3)c3cc(F)ccc23)CC1
- EC50 (Cannabinoid receptor 1 [3]): 251 nM

SMILES: CN1CCN(C(=O)c2cn(CC3CCCCC3)c3ccccc23)CC1
- EC50 (Cannabinoid receptor 1 [3]): 501 nM

SMILES: COc1cccc2c(C(=O)N3CCN(C)[C@H](C)C3)cn(CC3CCCCC3)c12.Cl
- solubility thermodynamic [1]: 88 µg/mL
- solubility thermodynamic [2]: 2860 µg/mL
- EC50 (Cannabinoid receptor 1 [3]): 126 nM

SMILES: CCN1[C@H](C)CN(C(=O)c2cn(CC3CCCCC3)c3c(OC)cccc23)C[C@@H]1C.Cl
- solubility thermodynamic [5]: 9 µg/mL
- solubility thermodynamic [2]: > 4000 µg/mL

SMILES: CCN1CCN(C(=O)c2cn(CC3CCCCC3)c3ccc(F)cc23)CC1
- EC50 (Cannabinoid receptor 1 [3]): 501 nM

SMILES: Cc1ccc2c(C(=O)N3CCN(C)CC3)cn(CC3CCCCC3)c2c1
- EC50 (Cannabinoid receptor 1 [3]): 316 nM

SMILES: CCN1CCN(C(=O)c2cn(CC3CCCCC3)c3cccc(F)c23)CC1
- EC50 (Cannabinoid receptor 1 [3]): 251 nM

SMILES: CCN1CCN(C(=O)c2cn(CC3CCCCC3)c3c(OC)cccc23)C[C@H]1C.Cl
- solubility thermodynamic [1]: 74 µg/mL
- solubility thermodynamic [2]: > 4000 µg/mL
- EC50 (Cannabinoid receptor 1 [3]): 631 nM
